For this assay, the system named is CD8F1 mice, subcutaneous mammary adenocarcinoma, T/C%. Kind of assay: NCI In Vivo Anticancer Drug Screen. Data for tumor model Mammary Adenocarcinoma CD8F1 (subcutaneous) in CD8F1. To be noted: higher = larger tumour. A digest of the protocol: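 Transplantable tumors were established in mice, animals were dosed with compound or vehicle, and survival or tumor size was then measured in both groups. The treated result was divided by the control result.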

Where [1] appears, read: endpoint: median tumor weight (est.), dose: 6.25 mg/kg/injection, schedule: Q07DX005 (ip), vehicle: saline.
Setting [2] is: endpoint: median tumor weight (est.), dose: 25.0 mg/kg/injection, schedule: Q07DX005 (ip), vehicle: saline.
Where [3] appears, read: endpoint: median tumor weight (est.), dose: 50.0 mg/kg/injection, schedule: Q07DX005 (ip), vehicle: saline.
The mark [4] stands for this setting: endpoint: median tumor weight (est.), dose: 100.0 mg/kg/injection, schedule: Q07DX005 (ip), vehicle: saline.
The mark [5] stands for this setting: endpoint: median tumor weight (est.), dose: 3.12 mg/kg/injection, schedule: Q07DX005 (ip), vehicle: saline with Tween-80.
[6] abbreviates: endpoint: median tumor weight (est.), dose: 6.25 mg/kg/injection, schedule: Q07DX005 (ip), vehicle: saline with Tween-80.
[7] abbreviates: endpoint: median tumor weight (est.), dose: 12.5 mg/kg/injection, schedule: Q07DX005 (ip), vehicle: saline with Tween-80.
Setting [8] is: endpoint: median tumor weight change, dose: 125.0 mg/kg/injection, schedule: Q01DX001 (ip), vehicle: saline.
[9] abbreviates: endpoint: median tumor weight change, dose: 250.0 mg/kg/injection, schedule: Q01DX001 (ip), vehicle: saline.
Setting [10] is: endpoint: median tumor weight (est.), dose: 12.5 mg/kg/injection, schedule: Q07DX005 (ip), vehicle: saline.
Setting [11] is: endpoint: median tumor weight (est.), dose: 200.0 mg/kg/injection, schedule: Q07DX005 (ip), vehicle: saline.
Where [12] appears, read: endpoint: median tumor weight (est.), dose: 400.0 mg/kg/injection, schedule: Q07DX005 (ip), vehicle: saline.
Setting [13] is: endpoint: median tumor weight (est.), dose: 6.25 mg/kg/injection, schedule: Q07DX005 (ip), vehicle: Klucel (hydroxypropylcellulose) (HPC).
Where [14] appears, read: endpoint: median tumor weight (est.), dose: 50.0 mg/kg/injection, schedule: Q07DX005 (ip), vehicle: Klucel (hydroxypropylcellulose) (HPC).
The mark [15] stands for this setting: endpoint: median tumor weight (est.), dose: 100.0 mg/kg/injection, schedule: Q07DX005 (ip), vehicle: Klucel (hydroxypropylcellulose) (HPC).

Values joined by “and” are separate entries in the source; they are usually repeats but may differ in a detail not shown here. Equal entries are not always repeated. Inconclusive results are not listed.

Regarding `CC[C@H]1CN2CCc3cc(OC)c(OC)cc3[C@@H]2C[C@@H]1C[C@@H]1c2cc(OC)c(OC)cc2CCN1CCN(CCCl)CCCl`, the T/C was 195 % of control (endpoint: mean tumor weight, dose: 2.5 mg/kg/injection, schedule: Q07DX005 (ip), vehicle: Klucel (hydroxypropylcellulose) (HPC)); 181 % of control (endpoint: mean tumor weight, dose: 5.0 mg/kg/injection, schedule: Q07DX005 (ip), vehicle: Klucel (hydroxypropylcellulose) (HPC)); 89 % of control (endpoint: mean tumor weight, dose: 5.0 mg/kg/injection, schedule: Q07DX006 (ip), vehicle: Klucel (hydroxypropylcellulose) (HPC)); 160 % of control (endpoint: mean tumor weight, dose: 10.0 mg/kg/injection, schedule: Q07DX005 (ip), vehicle: Klucel (hydroxypropylcellulose) (HPC)); 169 % of control (endpoint: mean tumor weight, dose: 10.0 mg/kg/injection, schedule: Q07DX006 (ip), vehicle: Klucel (hydroxypropylcellulose) (HPC)); 159 % of control (endpoint: mean tumor weight, dose: 20.0 mg/kg/injection, schedule: Q07DX006 (ip), vehicle: Klucel (hydroxypropylcellulose) (HPC)).

As to `O=c1[nH]c2c(ccc3cnccc32)c2c1CCC2`, the T/C was 119 % of control under setting [1]; 80 % of control (endpoint: median tumor weight (est.), dose: 12.5 mg/kg/injection, schedule: Q07DX005 (ip), vehicle: suspension in saline); 162 % of control under setting [2]; 80 % of control (endpoint: median tumor weight (est.), dose: 25.0 mg/kg/injection, schedule: Q07DX005 (ip), vehicle: suspension in saline); 114 % of control under setting [3]; 59 % of control (endpoint: median tumor weight (est.), dose: 50.0 mg/kg/injection, schedule: Q07DX005 (ip), vehicle: suspension in saline). In addition, the T/C runs as follows: under setting [4], 164 % of control; (endpoint: median tumor weight (est.), dose: 100.0 mg/kg/injection, schedule: Q07DX005 (ip), vehicle: suspension in saline) 77 % of control.

Take `c1ccc2c(c1)nnn1c3cnccc3nc21`: the T/C runs as follows: under setting [5], 115 % of control; under setting [6], 85 % of control; under setting [7], 105 % of control; (endpoint: median tumor weight (est.), dose: 25.0 mg/kg/injection, schedule: Q07DX005 (ip), vehicle: saline with Tween-80) 124 % of control.

For the compound `CN(C)c1ccc(C(=C2C=CC(=[N+](C)C)C=C2)c2ccc(N(C)C)cc2)cc1` (tested in a mixture with another compound), the T/C by setting is: (endpoint: median tumor weight change, dose: 2.5 mg/kg/injection, schedule: Q01DX001 (ip), vehicle: saline with Tween-80) 75 % of control; (endpoint: median tumor weight change, dose: 5.0 mg/kg/injection, schedule: Q01DX001 (ip), vehicle: saline with Tween-80) 77 % of control.

In the case of `CC1=NN(c2cccc(S(=O)(=O)O)c2)C(=O)C1N=Nc1cc(Cl)cc(S(=O)(=O)O)c1O.CC1=NN(c2cccc(S(=O)(=O)O)c2)C(=O)C1N=Nc1cc(Cl)cc(S(=O)(=O)O)c1O.[Cr]` (stereo unspecified), the T/C was 245 % of control under setting [8] and 184 % of control under setting [9].

With `O=C(CCCCCCC(=O)ON1C(=O)CCC1=O)ON1C(=O)CCC1=O`, the T/C reads like this: (endpoint: median tumor weight change, dose: 187.5 mg/kg/injection, schedule: Q01DX001 (ip), vehicle: saline with Tween-80) 100 % of control; (endpoint: median tumor weight change, dose: 375.0 mg/kg/injection, schedule: Q01DX001 (ip), vehicle: saline with Tween-80) 102 % of control; (endpoint: median tumor weight change, dose: 750.0 mg/kg/injection, schedule: Q01DX001 (ip), vehicle: saline with Tween-80) 51 % of control.

Take `c1cc2n(n1)CCN2`: the T/C runs as follows: under setting [10], 76 % of control; under setting [2], 94 % of control; under setting [3], 102 % of control; under setting [4], 85 % of control; under setting [11], 54 % of control; under setting [12], 46 % of control.

As for `CC[C@@]1(O)C(=O)OCc2c1cc1n(c2=O)Cc2cc3ccccc3nc2-1`, the T/C was 64 % of control (endpoint: median tumor weight change, dose: 1.5 mg/kg/injection, schedule: Q01DX001 (ip), vehicle: saline with Tween-80); 56 % of control and 73 % of control (endpoint: median tumor weight change, dose: 6.0 mg/kg/injection, schedule: Q01DX001 (ip), vehicle: saline with Tween-80); 62 % of control (endpoint: median tumor weight change, dose: 12.0 mg/kg/injection, schedule: Q01DX001 (ip), vehicle: saline with Tween-80); 5 % of control and 10 % of control (endpoint: median tumor weight change, dose: 24.0 mg/kg/injection, schedule: Q01DX001 (ip), vehicle: saline with Tween-80).

As to `CCCCCCC1C=Cc2ccccc21` (stereo unspecified), the T/C under setting [13] was 65 % of control; the T/C (endpoint: median tumor weight (est.), dose: 12.5 mg/kg/injection, schedule: Q07DX005 (ip), vehicle: Klucel (hydroxypropylcellulose) (HPC)) is 61 % of control; the T/C (endpoint: median tumor weight (est.), dose: 25.0 mg/kg/injection, schedule: Q07DX005 (ip), vehicle: Klucel (hydroxypropylcellulose) (HPC)) was 84 % of control; the T/C under setting [14] is 86 % of control; the T/C under setting [15] is 66 % of control.

Consider `C/C(=N/NC(N)=S)c1ccc2ccccc2c1`, for which the T/C reads like this: under setting [5], 152 % of control; under setting [6], 95 % of control and 100 % of control; under setting [7], 69 % of control and 72 % of control.

As to `COc1cc(Cc2nccc3cc(OC)c(OC)cc23)c(C(C)=O)cc1OC`, the T/C (endpoint: median tumor weight change, dose: 62.0 mg/kg/injection, schedule: Q01DX001 (ip), vehicle: saline) was 93 % of control; the T/C (endpoint: median tumor weight change, dose: 62.5 mg/kg/injection, schedule: Q01DX001 (ip), vehicle: saline) was 41 % of control; the T/C (endpoint: median tumor weight change, dose: 62.5 mg/kg/injection, schedule: Q01DX001 (ip), vehicle: suspension in saline) is 54 % of control; the T/C under setting [8] is 33 % of control and 35 % of control; the T/C (endpoint: median tumor weight change, dose: 125.0 mg/kg/injection, schedule: Q01DX001 (ip), vehicle: suspension in saline) is 57 % of control; the T/C under setting [9] was -6 % of control.

Turning to `N#Cc1nc(C#N)c(Sc2ccccc2)c(Sc2ccccc2)c1Sc1ccccc1`, the T/C reads like this: under setting [6], 165 % of control; under setting [7], 113 % of control.

For the compound `CCCCCCC(=O)CC(SCC)c1ccccc1Cl` (stereo unspecified), the T/C (endpoint: median tumor weight change, dose: 125.0 mg/kg/injection, schedule: Q01DX001 (ip), vehicle: saline with Tween-80) was 108 % of control; the T/C (endpoint: median tumor weight change, dose: 250.0 mg/kg/injection, schedule: Q01DX001 (ip), vehicle: saline with Tween-80) was 72 % of control; the T/C (endpoint: median tumor weight change, dose: 500.0 mg/kg/injection, schedule: Q01DX001 (ip), vehicle: saline with Tween-80) is 77 % of control; the T/C (endpoint: median tumor weight change, dose: 1000.0 mg/kg/injection, schedule: Q01DX001 (ip), vehicle: saline with Tween-80) is 72 % of control; the T/C (endpoint: median tumor weight change, dose: 2000.0 mg/kg/injection, schedule: Q01DX001 (ip), vehicle: saline with Tween-80) is 86 % of control.

Consider `CC1(C)CC(=O)C(CSC(=O)c2ccccc2)C(=O)C1`, for which the T/C is 182 % of control under setting [13]; 55 % of control under setting [1]; 102 % of control under setting [10]; 158 % of control under setting [2]; 39 % of control under setting [14]; 73 % of control under setting [3]. For the same compound, the T/C was 187 % of control under setting [15]; 64 % of control under setting [4]; 57 % of control (endpoint: median tumor weight (est.), dose: 200.0 mg/kg/injection, schedule: Q07DX005 (ip), vehicle: Klucel (hydroxypropylcellulose) (HPC)).

As for `CN(C)CC(Cl)CCl` (stereo unspecified), the T/C (endpoint: mean tumor weight, dose: 50.0 mg/kg/injection, schedule: Q07DX009 (ip), vehicle: saline) is 39 % of control; the T/C (endpoint: mean tumor weight, dose: 100.0 mg/kg/injection, schedule: Q07DX006 (ip), vehicle: saline) is 88 % of control; the T/C (endpoint: mean tumor weight, dose: 100.0 mg/kg/injection, schedule: Q07DX009 (ip), vehicle: saline) is 94 % of control; the T/C (endpoint: mean tumor weight, dose: 200.0 mg/kg/injection, schedule: Q07DX006 (ip), vehicle: saline) was 107 % of control; the T/C (endpoint: mean tumor weight, dose: 200.0 mg/kg/injection, schedule: Q07DX009 (ip), vehicle: saline) is 24 % of control; the T/C under setting [10] is 92 % of control. The T/C runs as follows: under setting [2], 97 % of control and 117 % of control; under setting [11], 62 % of control and 73 % of control; under setting [12], 37 % of control.

Regarding `C[C@H](N)C(=O)N[C@@H]1[C@H]2C(=C(O)C[C@@H](O)[C@@H]2O)C(=O)O[C@]1(C)C(Cl)Cl`, the T/C (endpoint: median tumor weight change, dose: 1.87 mg/kg/injection, schedule: Q01DX001 (ip), vehicle: Klucel (hydroxypropylcellulose) (HPC)) was 101 % of control and the T/C (endpoint: median tumor weight change, dose: 3.75 mg/kg/injection, schedule: Q01DX001 (ip), vehicle: Klucel (hydroxypropylcellulose) (HPC)) was 101 % of control.

These data come from PubChem BioAssay AID220 (DTP/NCI, 2004).
